Active and inactive are the calls of the source.
Legend:
[1] = inhibitors of firefly luciferase expression or activity, dose response, H4 neuroglioma cells, luminescence (AID 1990); assay type: functional, cell-based
[2] = target: T1, Luciferin 4-monooxygenase (Photinus pyralis, UniProt P08659); assay: Counter Screen for Luciferase-based Assay Positives. [Related pubchem assays: 620, 618, 411 ]
[3] = Luminescence Cell-Based Dose Response HTS to Identify Inhibitors of 5'UTR Stem-Loop Driven Prion Protein mRNA Translation in H4 Neuroglioblastoma Cells. [Related pubchem assays: 1827 (Project Summary), 1813 (Primary HTS)]; assay type: functional
[4] = inhibitors of SNCA 5'UTR-driven reporter translation, confirmation, H4 neuroglioma cells, luminescence (AID 1988); assay type: functional, cell-based
[5] = cytotoxicity in HPDE-C7 cells, cell-based, fluorescence, HTS (AID 430); assay type: functional; conditions: Homo sapiens
[6] = microbe, parasite or virus in culture; assay type: functional; conditions: Mycobacterium tuberculosis
[7] = cytotoxicity in KRAS-transformed pancreatic duct cells, primary screen, cell-based, fluorescence, HTS (AID 431); assay type: functional; conditions: Homo sapiens;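 note: cell line used: HPDE-C7K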
[8] = growth suppression of PTEN-null colon cells, dose response, cell-based, HCT116 PTEN knockout (AID 1047); assay type: functional;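 note: HCT116 colon tumor cells with PTEN knocked out; cells exposed to compound for 60 hours before readout; potency for loss of cell viability measured by luminescence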
HT-1080 = assay: cytotoxicity in HT1080 fibrosarcoma cells, cell-based, fluorescence readout (AID 620); assay type: functional; conditions: Homo sapiens
[9] = growth suppression of beta-catenin-knockout colon cells, dose response, cell-based, HCT116, human colon tumor (AID 1045); assay type: functional;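 note: HCT116 colon tumor cells with beta catenin knocked out; cells exposed to compound for 60 hours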
[10] = cytotoxicity in HEK-293T cells, dose response, cytotoxicity control for BCR NF-kB inhibitor project, luminescence, B-cell screen hits (AID 489021); assay type: functional, cell-based;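 note: HEK-293T cells carrying an NF-kB luciferase reporter; cells exposed to compound for about 14 hours before viability readout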
Vero = Vero cell cytotoxicity, cytotoxicity control for flavivirus capping enzyme inhibitors (AID 588742); assay type: functional; conditions: Chlorocebus sabaeus
[11] = target: Peroxisome proliferator-activated receptor gamma/Nuclear receptor coactivator 2 (Homo sapiens, UniProt P37231); assay type: functional;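 note: agonist potency for raising coactivator recruitment to the receptor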
Sequence of Peroxisome proliferator-activated receptor gamma/Nuclear receptor coactivator 2 (P37231 whole entry): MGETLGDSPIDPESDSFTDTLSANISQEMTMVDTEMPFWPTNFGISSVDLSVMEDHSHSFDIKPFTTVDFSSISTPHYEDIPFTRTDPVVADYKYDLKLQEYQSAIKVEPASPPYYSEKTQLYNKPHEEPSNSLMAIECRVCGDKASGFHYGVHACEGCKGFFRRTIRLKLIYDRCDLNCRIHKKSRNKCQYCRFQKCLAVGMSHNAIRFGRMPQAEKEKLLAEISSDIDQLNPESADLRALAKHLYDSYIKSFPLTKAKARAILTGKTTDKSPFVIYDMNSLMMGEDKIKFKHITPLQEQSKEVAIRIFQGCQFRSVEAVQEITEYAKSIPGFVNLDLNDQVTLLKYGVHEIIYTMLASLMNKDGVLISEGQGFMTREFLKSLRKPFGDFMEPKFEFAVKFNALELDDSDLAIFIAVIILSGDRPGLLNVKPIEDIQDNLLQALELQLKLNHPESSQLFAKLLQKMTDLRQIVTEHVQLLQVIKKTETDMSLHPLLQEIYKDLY
Sequence of Peroxisome proliferator-activated receptor gamma/Nuclear receptor coactivator 2 (Q15596 whole entry, further chain): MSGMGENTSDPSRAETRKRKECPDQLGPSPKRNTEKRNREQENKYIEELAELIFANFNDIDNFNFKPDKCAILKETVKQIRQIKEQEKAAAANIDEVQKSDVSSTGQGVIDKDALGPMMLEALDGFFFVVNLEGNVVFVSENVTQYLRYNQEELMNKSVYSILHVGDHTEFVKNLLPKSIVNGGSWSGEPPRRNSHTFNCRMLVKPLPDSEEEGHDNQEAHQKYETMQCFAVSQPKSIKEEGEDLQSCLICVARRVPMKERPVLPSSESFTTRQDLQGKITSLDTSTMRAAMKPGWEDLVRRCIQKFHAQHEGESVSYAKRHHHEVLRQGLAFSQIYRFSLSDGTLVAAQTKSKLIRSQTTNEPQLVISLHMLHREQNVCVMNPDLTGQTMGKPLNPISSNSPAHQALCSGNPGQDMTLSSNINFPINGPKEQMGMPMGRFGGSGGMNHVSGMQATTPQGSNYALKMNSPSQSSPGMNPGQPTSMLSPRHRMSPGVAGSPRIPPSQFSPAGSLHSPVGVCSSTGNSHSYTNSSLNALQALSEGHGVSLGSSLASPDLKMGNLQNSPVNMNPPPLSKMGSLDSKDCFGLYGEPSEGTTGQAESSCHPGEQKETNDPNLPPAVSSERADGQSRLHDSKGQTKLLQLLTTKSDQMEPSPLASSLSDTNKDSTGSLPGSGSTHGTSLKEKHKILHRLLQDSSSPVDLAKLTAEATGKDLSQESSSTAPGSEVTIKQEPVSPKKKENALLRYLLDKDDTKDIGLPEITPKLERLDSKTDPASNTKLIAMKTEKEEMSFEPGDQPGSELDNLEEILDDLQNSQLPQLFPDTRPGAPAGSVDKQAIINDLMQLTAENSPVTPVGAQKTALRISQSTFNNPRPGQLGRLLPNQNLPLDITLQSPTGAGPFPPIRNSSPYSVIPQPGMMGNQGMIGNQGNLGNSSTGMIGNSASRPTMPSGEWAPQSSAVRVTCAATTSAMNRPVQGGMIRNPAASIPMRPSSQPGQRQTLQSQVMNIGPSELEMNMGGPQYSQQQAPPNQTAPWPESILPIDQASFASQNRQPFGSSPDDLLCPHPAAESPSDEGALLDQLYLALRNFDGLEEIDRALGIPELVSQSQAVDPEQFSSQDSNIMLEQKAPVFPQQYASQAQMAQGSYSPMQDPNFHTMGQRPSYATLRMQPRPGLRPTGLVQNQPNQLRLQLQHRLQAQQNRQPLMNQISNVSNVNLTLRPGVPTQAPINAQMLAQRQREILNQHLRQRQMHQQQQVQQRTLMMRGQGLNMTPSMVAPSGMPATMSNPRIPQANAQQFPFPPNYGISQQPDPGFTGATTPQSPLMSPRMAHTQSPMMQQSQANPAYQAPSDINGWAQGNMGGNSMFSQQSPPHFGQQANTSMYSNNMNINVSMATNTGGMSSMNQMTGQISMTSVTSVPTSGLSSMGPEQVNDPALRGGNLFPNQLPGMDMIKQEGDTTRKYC

[12] = target: Peroxisome proliferator-activated receptor gamma/Nuclear receptor coactivator 1 (Homo sapiens, UniProt P37231); assay type: functional;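 note: agonist potency as compounds enhance coactivator SRC-1 recruitment to PPARgamma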
Sequence of Peroxisome proliferator-activated receptor gamma/Nuclear receptor coactivator 1 (P37231 whole entry): as the sequence (P37231 whole entry) above
Sequence of Peroxisome proliferator-activated receptor gamma/Nuclear receptor coactivator 1 (Q15788 whole entry, further chain): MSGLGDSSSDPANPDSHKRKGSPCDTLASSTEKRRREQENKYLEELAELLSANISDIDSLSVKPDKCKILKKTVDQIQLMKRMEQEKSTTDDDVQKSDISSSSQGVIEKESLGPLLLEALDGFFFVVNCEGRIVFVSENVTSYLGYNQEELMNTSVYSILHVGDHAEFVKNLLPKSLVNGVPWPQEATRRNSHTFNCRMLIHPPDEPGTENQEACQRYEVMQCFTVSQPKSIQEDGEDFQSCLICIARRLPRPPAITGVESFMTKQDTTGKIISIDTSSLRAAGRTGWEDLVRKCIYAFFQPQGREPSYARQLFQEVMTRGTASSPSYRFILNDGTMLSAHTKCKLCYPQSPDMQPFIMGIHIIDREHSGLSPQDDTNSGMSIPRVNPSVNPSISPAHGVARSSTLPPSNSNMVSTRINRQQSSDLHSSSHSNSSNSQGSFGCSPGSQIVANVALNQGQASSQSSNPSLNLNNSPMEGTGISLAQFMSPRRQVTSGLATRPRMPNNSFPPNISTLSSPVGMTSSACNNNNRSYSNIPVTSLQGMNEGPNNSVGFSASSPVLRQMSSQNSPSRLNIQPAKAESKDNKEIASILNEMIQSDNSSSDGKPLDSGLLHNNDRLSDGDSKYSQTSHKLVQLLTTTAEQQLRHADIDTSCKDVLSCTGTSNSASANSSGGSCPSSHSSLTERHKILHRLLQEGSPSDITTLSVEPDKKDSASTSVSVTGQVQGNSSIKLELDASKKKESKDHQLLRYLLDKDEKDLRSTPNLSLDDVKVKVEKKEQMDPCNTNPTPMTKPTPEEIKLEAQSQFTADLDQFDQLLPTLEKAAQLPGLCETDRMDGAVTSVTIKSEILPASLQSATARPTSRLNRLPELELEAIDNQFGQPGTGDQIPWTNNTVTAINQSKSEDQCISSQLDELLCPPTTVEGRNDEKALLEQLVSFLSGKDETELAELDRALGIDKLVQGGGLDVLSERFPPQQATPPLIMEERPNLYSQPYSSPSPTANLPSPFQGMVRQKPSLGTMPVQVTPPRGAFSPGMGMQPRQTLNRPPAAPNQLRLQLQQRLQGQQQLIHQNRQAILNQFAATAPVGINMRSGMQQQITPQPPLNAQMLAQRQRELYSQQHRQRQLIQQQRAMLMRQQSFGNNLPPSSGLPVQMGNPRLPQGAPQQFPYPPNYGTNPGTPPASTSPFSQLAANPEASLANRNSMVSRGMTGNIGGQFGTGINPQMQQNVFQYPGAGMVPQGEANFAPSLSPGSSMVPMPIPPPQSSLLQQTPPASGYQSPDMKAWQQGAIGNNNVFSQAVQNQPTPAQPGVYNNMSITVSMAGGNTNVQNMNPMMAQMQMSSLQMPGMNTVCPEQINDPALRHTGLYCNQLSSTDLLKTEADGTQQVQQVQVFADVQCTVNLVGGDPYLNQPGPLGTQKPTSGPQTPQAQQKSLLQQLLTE

[13] = target: Peroxisome proliferator-activated receptor gamma/Nuclear receptor coactivator 3 (Homo sapiens, UniProt P37231); assay type: functional;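 note: agonist potency for raising coactivator recruitment to the receptor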
ORF 73 = target: T2, ORF 73 (Human herpesvirus 8, UniProt O40947); assay: inhibitors of C-LANA binding to LBS DNA, dose response, biochemical, fluorescence polarization, cherry-picked samples (AID 504725); set-up: species or system Human gammaherpesvirus 8;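 note: fluorescence polarization of a labeled DNA duplex reporting LANA DNA binding; potency is for inhibitors that block LANA binding to the DNA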
T2 sequence (O40947 whole entry): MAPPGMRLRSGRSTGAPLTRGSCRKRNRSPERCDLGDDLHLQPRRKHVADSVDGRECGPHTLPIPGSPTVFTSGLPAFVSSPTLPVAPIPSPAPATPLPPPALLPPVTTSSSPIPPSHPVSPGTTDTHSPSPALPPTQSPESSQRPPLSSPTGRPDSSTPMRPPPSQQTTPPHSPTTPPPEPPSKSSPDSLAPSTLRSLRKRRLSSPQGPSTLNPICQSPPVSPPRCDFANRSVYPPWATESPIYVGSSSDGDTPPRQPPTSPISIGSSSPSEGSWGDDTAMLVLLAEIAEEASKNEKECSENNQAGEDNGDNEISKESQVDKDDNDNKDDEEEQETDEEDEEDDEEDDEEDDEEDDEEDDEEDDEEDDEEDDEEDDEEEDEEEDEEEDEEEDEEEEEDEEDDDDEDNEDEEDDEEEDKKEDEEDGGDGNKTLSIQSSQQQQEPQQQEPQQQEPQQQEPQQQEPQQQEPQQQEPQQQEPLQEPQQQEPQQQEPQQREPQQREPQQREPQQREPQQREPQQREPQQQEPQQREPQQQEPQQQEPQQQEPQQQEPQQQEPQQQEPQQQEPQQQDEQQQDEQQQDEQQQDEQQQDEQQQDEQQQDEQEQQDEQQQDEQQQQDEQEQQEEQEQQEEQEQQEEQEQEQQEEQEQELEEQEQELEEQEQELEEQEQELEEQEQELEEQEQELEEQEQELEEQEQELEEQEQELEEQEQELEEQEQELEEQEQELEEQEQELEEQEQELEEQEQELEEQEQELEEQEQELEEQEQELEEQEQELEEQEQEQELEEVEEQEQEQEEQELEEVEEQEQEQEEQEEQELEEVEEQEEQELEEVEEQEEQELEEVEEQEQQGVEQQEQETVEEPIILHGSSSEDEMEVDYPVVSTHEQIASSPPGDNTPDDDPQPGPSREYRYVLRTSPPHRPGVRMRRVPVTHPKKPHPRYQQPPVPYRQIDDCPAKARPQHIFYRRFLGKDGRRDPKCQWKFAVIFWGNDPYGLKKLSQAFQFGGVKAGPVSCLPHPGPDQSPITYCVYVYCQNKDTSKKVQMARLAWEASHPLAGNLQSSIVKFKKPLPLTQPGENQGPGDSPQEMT

[14] = target: T3, Endoribonuclease toxin MazF (Escherichia coli K-12, UniProt P0AE70); assay: MazF toxin RNase activators, dose response, biochemical, fluorescence, single-stranded RNA substrate, uHTS hits (AID 588481); assay type: functional
T3 sequence (P0AE70 whole entry): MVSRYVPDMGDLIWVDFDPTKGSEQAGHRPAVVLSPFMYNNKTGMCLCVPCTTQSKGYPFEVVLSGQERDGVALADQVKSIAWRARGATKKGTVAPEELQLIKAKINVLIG

[15] = target: T3, Endoribonuclease toxin MazF; assay: fluorescent RNA oligo signal without MazF, dose response, counter-screen for MazEF activator project, biochemical, fluorescence, single-stranded RNase substrate (AID 588502); assay type: functional
[16] = target: T4, Corticotropin-releasing factor receptor 2/Corticotropin-releasing factor-binding protein (Homo sapiens, UniProt P24387+Q13324); assay: activators of CRF receptor 2 with binding protein – uHTS hits, confirmation (AID 602473); assay type: functional; conditions: read-out: EC50_Mean
T4 sequence (Q13324 whole entry): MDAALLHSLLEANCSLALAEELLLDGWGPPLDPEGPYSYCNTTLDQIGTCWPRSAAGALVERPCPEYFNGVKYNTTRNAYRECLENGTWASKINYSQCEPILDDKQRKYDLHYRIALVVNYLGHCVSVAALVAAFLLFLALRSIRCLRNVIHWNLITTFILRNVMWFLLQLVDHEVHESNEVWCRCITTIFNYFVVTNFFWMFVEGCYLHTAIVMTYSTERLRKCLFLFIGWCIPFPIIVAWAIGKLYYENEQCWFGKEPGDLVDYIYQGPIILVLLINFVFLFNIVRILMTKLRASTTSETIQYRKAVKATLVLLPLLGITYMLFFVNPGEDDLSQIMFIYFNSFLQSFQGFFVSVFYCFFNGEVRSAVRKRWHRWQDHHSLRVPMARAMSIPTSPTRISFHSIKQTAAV
T4 sequence (P24387 whole entry): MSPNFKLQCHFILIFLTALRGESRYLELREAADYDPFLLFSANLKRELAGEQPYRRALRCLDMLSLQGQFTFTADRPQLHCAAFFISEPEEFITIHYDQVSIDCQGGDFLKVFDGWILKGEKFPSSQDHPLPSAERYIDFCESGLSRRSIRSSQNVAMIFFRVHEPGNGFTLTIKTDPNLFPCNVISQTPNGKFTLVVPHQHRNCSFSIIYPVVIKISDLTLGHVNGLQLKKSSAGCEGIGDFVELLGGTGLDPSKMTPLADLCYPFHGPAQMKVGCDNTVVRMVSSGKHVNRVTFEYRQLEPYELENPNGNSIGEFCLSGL

[17] = target: T5, RNA-binding protein pos-1 (Caenorhabditis elegans, UniProt G5EF15); assay: inhibitors of POS-1/mex-3 RNA binding, dose response, biochemical, fluorescence polarization (AID 1964);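 note: purified POS-1 fused to maltose binding protein made in E. coli; potency of compounds blocking POS-1 binding to fluorescent RNA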
T5 sequence (G5EF15 whole entry): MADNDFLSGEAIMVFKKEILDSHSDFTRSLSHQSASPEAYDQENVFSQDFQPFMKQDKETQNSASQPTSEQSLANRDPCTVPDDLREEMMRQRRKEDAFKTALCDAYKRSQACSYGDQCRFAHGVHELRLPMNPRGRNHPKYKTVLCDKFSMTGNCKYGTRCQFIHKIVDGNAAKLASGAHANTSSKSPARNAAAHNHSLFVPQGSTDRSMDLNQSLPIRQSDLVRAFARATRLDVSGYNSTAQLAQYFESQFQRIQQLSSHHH

[18] = target: T6, Zinc finger protein mex-5 (Caenorhabditis elegans, UniProt Q9XUB2); assay: MEX-5/TCR-2 RNA interaction inhibitors, dose response, biochemical, C. elegans, fluorescence polarization (AID 1960)
T6 sequence (Q9XUB2 whole entry): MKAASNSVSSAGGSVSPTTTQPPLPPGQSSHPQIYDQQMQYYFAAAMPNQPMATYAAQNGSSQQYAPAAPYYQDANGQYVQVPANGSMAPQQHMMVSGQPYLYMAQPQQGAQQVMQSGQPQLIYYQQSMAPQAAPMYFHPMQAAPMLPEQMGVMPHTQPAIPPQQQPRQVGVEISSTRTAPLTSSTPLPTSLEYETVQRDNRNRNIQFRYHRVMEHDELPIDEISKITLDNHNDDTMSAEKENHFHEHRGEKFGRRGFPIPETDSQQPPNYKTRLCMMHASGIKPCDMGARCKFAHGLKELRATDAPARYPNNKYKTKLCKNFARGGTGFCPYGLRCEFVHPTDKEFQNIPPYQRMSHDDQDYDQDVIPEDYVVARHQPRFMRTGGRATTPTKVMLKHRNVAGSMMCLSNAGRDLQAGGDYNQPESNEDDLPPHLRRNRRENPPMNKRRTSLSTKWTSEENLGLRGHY

[19] = target: T1, Luciferin 4-monooxygenase; assay: firefly luciferase enzyme inhibitors, dose response, biochemical, luminescence (AID 1891)
[20] = Luminescence Cell-Based Dose Confirmation HTS to Identify Inhibitors of Platelet Dense Granule Release. [Related pubchem assays: 1663 (Primary HTS), 1678 (Summary of Project)]; assay type: functional
HeLa = assay: HeLa cell cytotoxicity, dose response, cytotoxicity control, 24 h, cherry-picked samples (AID 504726); assay type: functional, cell-based; conditions: Homo sapiens;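 note: potency for cytotoxicity as loss of luminescence signal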
[21] = target: T7, Lysine-specific demethylase 4C (Homo sapiens, UniProt Q9H3R0); assay: GASC-1 (JMJD2C) histone demethylase inhibitors, dose response, biochemical, DELFIA europium, cherry-picked samples (AID 488835); assay type: functional
T7 sequence (Q9H3R0 whole entry): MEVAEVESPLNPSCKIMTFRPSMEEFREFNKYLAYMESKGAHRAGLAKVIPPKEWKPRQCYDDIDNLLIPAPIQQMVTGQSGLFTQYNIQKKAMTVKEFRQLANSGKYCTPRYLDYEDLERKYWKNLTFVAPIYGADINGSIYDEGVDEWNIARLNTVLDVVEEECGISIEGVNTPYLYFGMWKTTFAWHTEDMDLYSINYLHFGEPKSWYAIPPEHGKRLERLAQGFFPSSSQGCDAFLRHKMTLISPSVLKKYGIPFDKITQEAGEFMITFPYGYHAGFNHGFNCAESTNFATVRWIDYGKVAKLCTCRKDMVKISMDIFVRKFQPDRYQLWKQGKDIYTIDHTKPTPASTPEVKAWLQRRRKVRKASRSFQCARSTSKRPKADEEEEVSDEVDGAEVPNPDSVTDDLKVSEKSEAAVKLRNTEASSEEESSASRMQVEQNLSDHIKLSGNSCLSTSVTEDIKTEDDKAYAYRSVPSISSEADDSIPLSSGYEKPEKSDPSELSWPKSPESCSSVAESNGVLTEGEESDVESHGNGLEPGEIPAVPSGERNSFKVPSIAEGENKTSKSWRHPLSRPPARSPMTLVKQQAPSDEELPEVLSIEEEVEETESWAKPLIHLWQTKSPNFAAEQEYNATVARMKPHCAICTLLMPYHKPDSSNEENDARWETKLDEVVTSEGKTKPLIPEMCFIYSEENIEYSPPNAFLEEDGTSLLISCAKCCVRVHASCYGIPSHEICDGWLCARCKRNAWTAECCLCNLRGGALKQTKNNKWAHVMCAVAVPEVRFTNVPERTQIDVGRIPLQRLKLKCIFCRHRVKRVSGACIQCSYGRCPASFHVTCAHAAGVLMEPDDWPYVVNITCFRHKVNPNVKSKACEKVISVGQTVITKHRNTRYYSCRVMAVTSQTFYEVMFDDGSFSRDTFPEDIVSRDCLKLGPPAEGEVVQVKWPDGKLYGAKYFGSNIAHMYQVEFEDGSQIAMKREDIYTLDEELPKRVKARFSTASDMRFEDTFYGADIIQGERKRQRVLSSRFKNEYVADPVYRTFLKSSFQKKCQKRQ

T1 sequence (P08659 whole entry): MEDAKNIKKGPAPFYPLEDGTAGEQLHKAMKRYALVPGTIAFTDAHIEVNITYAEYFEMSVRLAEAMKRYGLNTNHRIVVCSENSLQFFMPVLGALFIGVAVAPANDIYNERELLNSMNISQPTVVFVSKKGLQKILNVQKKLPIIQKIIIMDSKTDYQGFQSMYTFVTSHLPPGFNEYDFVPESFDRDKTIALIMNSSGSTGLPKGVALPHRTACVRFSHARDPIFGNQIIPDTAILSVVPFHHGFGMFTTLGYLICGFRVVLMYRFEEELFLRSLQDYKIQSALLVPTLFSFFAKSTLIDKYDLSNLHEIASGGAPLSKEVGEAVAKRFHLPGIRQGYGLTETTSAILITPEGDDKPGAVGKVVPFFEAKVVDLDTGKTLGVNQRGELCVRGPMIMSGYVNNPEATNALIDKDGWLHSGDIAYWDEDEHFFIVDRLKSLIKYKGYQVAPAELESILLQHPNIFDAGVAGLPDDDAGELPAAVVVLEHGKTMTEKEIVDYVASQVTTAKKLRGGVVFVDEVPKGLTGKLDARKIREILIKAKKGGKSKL

Compound: CC1CC(C)(C)Nc2ccc(OC(=O)c3ccco3)cc21 (configuration not stated)
- EC50 [1]: 8.25 µM (active)
- EC50 [2]: < 0.2 µM (active)
- EC50 [3]: 14.8 µM (active)
- EC50 [4]: 20.1 µM (active)
- EC50 [5]: 10.1 µM (active)
- CC50 [6]: 30 µM (active)
- EC50 [7]: 9.77 µM (active)
- EC50 [8]: 8.58 µM (active)
- EC50 (HT-1080): > 50 µM (not active)
- EC50 [9]: 8.18 µM (active)
- IC50 [10]: 50.9 µM (inactive)
- CC50 (Vero): > 40 µM (active)

Compound: Clc1ccc(-c2nnc3sc(-c4ccc(Br)o4)nn23)cc1
- EC50 [11]: 39.7 µM (not active)
- EC50 [12]: > 79.4 µM (not active)
- EC50 [13]: > 79.4 µM (not active)
- AC50 (ORF 73): 27.1 µM (active)
- EC50 [14]: > 99 µM (inactive)
- EC50 [15]: > 99 µM (inactive)
- EC50 [16]: > 53 µM (inactive)

Compound: Cc1cc(NS(=O)(=O)c2ccc(Nc3nc(-c4sc(N)nc4C)cs3)cc2)no1
- EC50 [17]: 9.62 µM (active)
- EC50 [18]: 7.76 µM (active)
- EC50 [19]: > 112 µM (not active)
- EC50 [20]: > 112 µM (not active)
- AC50 (HeLa): 52.4 µM (active)
- AC50 [21]: 8.48 µM (active)

Compound: CN(C)S(=O)(=O)c1cccc(N2C(=O)CC3(CCCCC3)CC2=O)c1
- AC50 (HeLa): > 350 µM (inactive)
- AC50 (ORF 73): 76.9 µM (active)

From ChEMBL document CHEMBL1201862, “PubChem BioAssay data set” (2004)
